From patent publication US5106873A, “ACAT inhibitors” (priority 1990, dated 1992)

Key:
[1] = molecular target: T1, acyl-CoA: cholesterol acyltransferase (ACAT) (Oryctolagus cuniculus, UniProt G1SFD9); assay: In vitro inhibition of ACAT (acylation of cholesterol by oleic acid) in rabbit intestinal microsomes; type: biochemical; settings: radiolabeled oleic acid
T1 construct: tissue preparation containing rabbit intestinal microsomes; from tissue; host or cells: rabbit intestinal microsomes
T1 sequence (G1SFD9 1-524): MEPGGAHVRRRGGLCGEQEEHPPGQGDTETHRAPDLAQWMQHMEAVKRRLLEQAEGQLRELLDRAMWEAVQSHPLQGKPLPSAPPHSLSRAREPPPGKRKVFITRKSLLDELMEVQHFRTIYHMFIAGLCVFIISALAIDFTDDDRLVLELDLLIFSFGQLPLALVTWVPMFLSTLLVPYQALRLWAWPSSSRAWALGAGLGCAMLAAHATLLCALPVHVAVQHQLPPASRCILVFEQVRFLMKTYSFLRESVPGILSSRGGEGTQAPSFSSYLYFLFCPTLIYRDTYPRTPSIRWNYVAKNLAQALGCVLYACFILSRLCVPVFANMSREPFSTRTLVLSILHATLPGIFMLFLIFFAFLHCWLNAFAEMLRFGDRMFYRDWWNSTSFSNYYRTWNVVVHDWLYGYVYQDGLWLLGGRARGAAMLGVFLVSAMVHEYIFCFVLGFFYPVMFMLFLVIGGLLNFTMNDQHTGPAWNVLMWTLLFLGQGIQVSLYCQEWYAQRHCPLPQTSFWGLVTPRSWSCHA
Description: The ability of representative compounds of the present invention to inhibit ACAT was measured using an in vitro test more fully described in Field, F. J. and Salone, R. G., Biochemica et Biophysica, 712:557-570 (1982). The test assesses the ability of a test compound to inhibit the acylation of cholesterol by oleic acid by measuring the amount of radiolabeled cholesterol […] formed from radiolabeled oleic acid in a tissue preparation containing rabbit intestinal microsomes. The data appear in Table 1 where they are expressed in IC50 values; i.e., the concentration of test compound required to inhibit 50% expression of the enzyme.

[2] = In vivo screen designated APCC, cholesterol in rats fed PCC diet with cholic acid; design: species or system male Sprague-Dawley rats; settings: blood cholesterol; PCC diet with 1% or 0.5% cholic acid; dosed at 4 PM, sacrificed at 8 AM; dose not stated
Text: In one in vivo screen designated APCC, male Sprague-Dawley rats (200 to 225 g) were randomly divided into treatment groups and dosed at 4 PM with either vehicle (CMC/Tween) or suspensions of compounds in vehicle. The normal, chow diet was then replaced with the PCC diet with either 1% or 0.5% cholic acid, as indicated. The rats consumed this diet ad libitum during the night and were sacrificed at 8 AM to obtain blood samples for cholesterol analysis using standard procedures. Statistical differences between mean cholesterol values for the same vehicle were determined using analysis of variance followed by Fisher's least significant test.

IC50 [1]	SMILES	% Change [2]
96 nM	CCCC(CCC)(CNC(=O)Nc1c(C(C)C)cccc1C(C)C)NC(=O)c1ccc(OC)cc1 [Example 4]	–
510 nM	COc1ccc(C(=O)NC2(CNC(=O)Nc3c(C(C)C)cccc3C(C)C)CCCC2)cc1 [Example 5, N-[1-[[[[[2,6-bis(1-methylethyl)phenyl]amino]carbonyl]amino]methyl]cyclopentyl]-4-methoxybenzamide]	–
85 nM	COc1ccc(CN[C@H](CNC(=O)Nc2c(C(C)C)cccc2C(C)C)C(C)C)cc1 [Example 8, (S)-(-)-N[2,6-Bis(1-methylethyl)phenyl]-N'-[2-[[(4-methoxyphenyl]methyl]amino]-3-methylbutyl]urea]	-17%

Second part, the molecule before the results:

SMILES	IC50 [1]	% Change [2]
COc1ccc(CN[C@H](CNC(=O)Nc2c(C(C)C)cccc2C(C)C)CC(C)C)cc1 [Example 6, (S)-(-)-N-[2,6-bis(1-methylethyl)phenyl]-N'-[2-[[(4-methoxyphenyl)methyl]amino]-4-methyl-pentyl]urea]	57 nM	-25%
COc1ccc(CN[C@@H](CCSC)CNC(=O)Nc2c(C(C)C)cccc2C(C)C)cc1 [Example 7, (S)-(-)-N-[2,6-Bis(1-methylethyl)phenyl]-N'-[2-[[(4-methoxyphenyl)methyl]amino]-4-(methylthio)butyl]urea]	–	-31%
COc1ccc(CN[C@H](CNC(=O)Nc2c(C(C)C)cccc2C(C)C)Cc2ccccc2)cc1 [Example 9, (S)-(-)-N-[2,6-Bis(1-methylethyl)phenyl]-N'-[2-[[(4-methoxyphenyl)methyl]amino]-3-phenylpropyl]urea]	–	-33%
CC(C)c1cccc(C(C)C)c1NC(=O)NC[C@H](Cc1ccccc1)NCc1ccccc1O [Example 10]	–	-46%
